In US6506901B2, “Substituted 2-(S)-hydroxy-3-(piperidin-4-yl-methylamino)-propyl ethers and substituted 2-aryl-2-(R)-hydroxy-1-(piperidin-4-yl-methyl)-ethylamine β-3 adrenergic receptor agonists” (Wyeth, priority 2000, dated 2003):

Target: T1, human β3 receptors (Homo sapiens, UniProt P13945)
T1 construct: Full length β3 AR clones (402 amino acids) containing the last 6 amino acids of hβ3—AR; expressed in transfected cells; host or cells: CHO cells
Experiment: cAMP response (SPA) in CHO cells expressing cloned human β3 adrenergic receptor
Format: cell-based
Conditions: for EC50: CHO cells expressing human β3 receptor, cAMP, 30 min incubation, 10^−9 M to 10^−5 M; for IA(β3): maximal response compared to the maximal response of isoproterenol at 10^−5 M
Method: Binding to the receptors was measured in Chinese Hamster ovary (CHO) cells that were transfected with adrenergic receptors.
Cloning of Human β3-AR Genomic DNA: cDNA was constructed by ligating four polymerase chain reaction (PCR) products using the following primers: an ATG-NarI fragment, sense primer 5′-[…]3′ and anti-sense primer 5′ […]3′; a NarI-AccI fragment, 5′ […]3′ as sense and 5′ […]3′ as anti-sense primer; an AccIi-StyI fragment, sense primer 5′ […]3′ and anti-sense primer 5′ […]3′ and a StyI-TAG fragment, with sense primer 5′ […]3′ and anti-sense primer 5′ […]3′. The corresponding primer sequences are described in Mantzoros, C. […] The four fragments are ligated into a pUC 18 plasmid (Gibco-BRL) and sequenced.
CHO cells were grown in 24-well tissue culture plates in Dulbecco's Modified Eagle Media with 10% fetal bovine serum, MEM non-essential amino acids, Penicillin-Streptompycin and Geneticin. […] Isoproterenol (10^−5 M) was used as an internal standard for comparison of activity. Cells were incubated at 37° C. on a rocker for 30 min with the β3 cells and 15 min for β1 and β2 cells. Incubation was stopped with the addition of 0.2N HCl and neutralized with 2.5N NaOH. The plates, containing the cells and neutralized media, were stored at −20 degrees celsius until ready to test for cAMP using the SPA test kit (Amersham).
Data Analysis and Results: Data collected from the SPA test procedure were analyzed as per cent of the maximal isoproterenol response at 10^−5 M. Activity curves were plotted using the SAS statistical and graphics software.

T1 sequence (P13945 whole entry): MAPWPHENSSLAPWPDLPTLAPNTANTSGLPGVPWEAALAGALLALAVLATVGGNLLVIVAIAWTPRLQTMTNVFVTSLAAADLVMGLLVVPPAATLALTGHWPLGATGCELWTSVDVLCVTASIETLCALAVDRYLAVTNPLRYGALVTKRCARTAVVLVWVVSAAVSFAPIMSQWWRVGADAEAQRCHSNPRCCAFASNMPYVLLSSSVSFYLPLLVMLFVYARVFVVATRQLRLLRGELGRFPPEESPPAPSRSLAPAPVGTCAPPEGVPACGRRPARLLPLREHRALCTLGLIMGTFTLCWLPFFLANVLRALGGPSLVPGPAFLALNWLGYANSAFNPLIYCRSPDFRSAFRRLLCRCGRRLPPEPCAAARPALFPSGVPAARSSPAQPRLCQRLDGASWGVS

| SMILES | EC50 [nM] | IA(β3) |
| --- | --- | --- |
| CCOC(=O)c1cccc(NC(=O)N2CCC(CNC[C@H](O)COc3ccc(O)cc3)CC2)c1 [Example 52, 3-[(4-{[(2S)-2-Hydroxy-3-(4-hydroxy-phenoxy)-propylamino]-methyl}-piperidine-1-carbonyl)-amino]-benzoic Acid Ethyl Ester] | 305 | 0.9 |
| O=C(NC1CCCCC1)N1CCC(CNC[C@H](O)COc2cccc3[nH]c4ccccc4c23)CC1 [Example 56, 4-{[(2S)-3-(9H-Carbazol-4-yloxy)-2-hydroxy-propylamino]-methyl}-piperidine-1-carboxylic Acid Cyclohexylamide] | 110 | 0.53 |
| O=C(NC1CCCCC1)N1CCC(CNC[C@H](O)COc2ccc(O)cc2)CC1 [Example 57, 4-{[(2S)-2-Hydroxy-3-(4-hydroxy-phenoxy)-propylamino]-methyl}-piperidine-1-carboxylic Acid Cyclohexylamide] | 3190 | 0.46 |
| Cc1cc2cccc(OC[C@@H](O)CNCC3CCN(S(=O)(=O)c4ccc(NC(=O)Nc5ccccc5)cc4)CC3)c2[nH]1 [Example 61, 1-[4-(4-{[(2S)-2-Hydroxy-3-(2-methyl-1H-indol-7-yloxy)-propylamino]-methyl}-piperidine-1-sulfonyl)-phenyl]-3-phenyl-urea] | 97 | 0.4 |
| CCCCCCCCNC(=O)Nc1ccc(S(=O)(=O)N2CCC(CNCC(O)COc3cccc4[nH]c(C(N)=O)cc34)CC2)cc1 (stereo not shown) [Example 71, 4-[2-Hydroxy-3-({1-[4-(3-octyl-ureide)-benzenesulfonyl]-piperidin-4-ylmethyl}-amino)-propoxy]-1H-indole-2-carboxylic Acid Amide] | 96 | 0.6 |
| O=C(Nc1ccc(S(=O)(=O)N2CCC(CNC[C@H](O)COc3ccc(O)cc3)CC2)cc1)Nc1c(F)cccc1F [Example 83] | 112 | 1.2 |
| CC(C)N(Cc1cc(F)ccc1F)C(=O)Nc1ccc(S(=O)(=O)N2CCC(CNC[C@H](O)c3ccc(O)c(NS(C)(=O)=O)c3)CC2)cc1 [Example 86] | 3 | 0.78 |
| CS(=O)(=O)Nc1cc([C@@H](O)CNCC2CCN(S(=O)(=O)c3ccc(NC(=O)NCc4ccc(OCC(=O)O)cc4F)cc3)CC2)ccc1O [Example 89, [3-Fluoro-4-[[[[[4-[[4-[[[(R)-2-hydroxy-2-[4-hydroxy-3-[(methylsulfonyl)amino]phenyl]-ethy]amino]-methyl]-1-piperidinyl]sulfonyl]phenyl]amino]carbonyl]-amino]-methyl]phenoxy]acetic Acid] | 35 |  |
| CCCCCCC(=O)Nc1ccc(S(=O)(=O)N2CCC(CNC[C@H](O)COc3ccc(O)cc3)CC2)cc1 [Example 90, Heptanoic Acid [4-(4-{[(2S)-2-Hydroxy-3-(4-hydroxy-phenoxy)-propylamino]-methyl}-piperidine-1-sulfonyl)-phenyl]-amide] | 269 | 0.91 |
| O=C(NCc1c(F)cccc1F)c1ccc(S(=O)(=O)N2CCC(CNC[C@H](O)COc3ccc(O)cc3)CC2)cc1 [Example 91, N-(2,6-Difluoro-benzyl)-4-(4-{[(2S)-2-hydroxy-3-(4-hydroxy-phenoxy)-propylamino]-methyl}-piperidine-1-sulfonyl)-benzamide] | 110 | 0.72 |
| O=C(Nc1ccc(S(=O)(=O)N2CCC(CNC[C@H](O)COc3ccc(O)cc3)CC2)cc1)c1n[nH]c2ccccc12 [Example 92, 1H-Indazole-3-carboxylic Acid [4-(4-{[(2S)-2-Hydroxy-3-(4-hydroxy-phenoxy)-propylamino]-methyl}-piperidine-1-sulfonyl)-phenyl]-amide] | 160 | 0.82 |

Continued by falling EC50, values first:

| EC50 [nM] | IA(β3) | SMILES |
| --- | --- | --- |
| 29 | 1.2 | CN(Cc1c(F)cccc1F)C(=O)Nc1ccc(S(=O)(=O)N2CCC(CNC[C@H](O)c3ccc(O)c(NS(C)(=O)=O)c3)CC2)cc1 [Example 85, N-(5-{2-[(1-{4-[3-(2,6-Difluoro-benzyl)-3-methyl-ureido]-benzenesulfonyl}-piperidin-4-ylmethyl)-amino]-1-hydroxy-ethyl}-2-hydroxy-phenyl)-methanesulfonamide] |
| 27 | 0.93 | CC(C)N(Cc1c(F)cccc1F)C(=O)Nc1ccc(S(=O)(=O)N2CCC(CNC[C@H](O)c3ccc(O)c(NS(C)(=O)=O)c3)CC2)cc1 [Example 84, N-(5-{(1R)-2-[(1-{4-[3-(2,6-Difluoro-benzyl)-3-isopropyl-ureido]-benzenesulfonyl}-piperidin-4-ylmethyl)-amino]-1-hydroxy-ethyl}-2-hydroxy-phenyl)-methane-sulfonamide] |
| 22 | 1 | COC(=O)COc1ccc(CNC(=O)Nc2ccc(S(=O)(=O)N3CCC(CNC[C@H](O)c4ccc(O)c(NS(C)(=O)=O)c4)CC3)cc2)c(F)c1 [Example 88, [3-Fluoro-4-[[[[[4-[[4-[[[(R)-2-hydroxy-2-[4-hydroxy-3-[(methylsulfonyl)amino]-phenyl]ethyl]amino]-methyl]-1-piperidinyl]sulfonyl]phenyl]amino]-carbonyl]-amino]methyl]phenoxy]acetic Acid, Methyl Ester] |
| 20 | 1.2 | CS(=O)(=O)Nc1cc([C@@H](O)CNCC2CCN(S(=O)(=O)c3ccc(NC(=O)Nc4ccccn4)cc3)CC2)ccc1O [Example 67, N-{2-Hydroxy-5-[(1R)-1-hydroxy-2-({1-[4-(3-pyridin-2-yl-ureido)-benzenesulfonyl]-piperidin-4-ylmethyl}-amino)-ethyl]-phenyl}-methanesulfonamide] |
| 10 | 0.68 | O=C(Nc1ccccc1)Nc1ccc(S(=O)(=O)N2CCC(CNC[C@H](O)COc3cccc4[nH]c(=O)[nH]c34)CC2)cc1 [Example 62, 1-[4-(4-{[2-Hydroxy-3-(2-oxo-2,3-dihydro-1H-benzoimidazol-4-yloxy)-propylamino]-methyl}-piperidine-1-sulfonyl)-phenyl]-3-phenyl-urea] |
| 7 | 1 | CN(Cc1cc(F)ccc1F)C(=O)Nc1ccc(S(=O)(=O)N2CCC(CNC[C@H](O)c3ccc(O)c(NS(C)(=O)=O)c3)CC2)cc1 [Example 87, N-[5-[(R)-2-[[[1-[[4-[[[[(2,5-Difluorophenyl)methyl]-methylamino]-carbonyl]amino]-phenyl]sulfonyl]-4-piperidinyl]methyl]amino]-1-hydroxyethyl]-2-hydroxyphenyl]-methanesulfonamide] |
| 6 | 1 | CCCCCCCCNC(=O)Nc1ccc(S(=O)(=O)N2CCC(CNC[C@H](O)c3ccc(O)c(NS(C)(=O)=O)c3)CC2)cc1 [Example 73, (R)-N-{2-Hydroxy-5-[1-hydroxy-2-({1-[4-(3-octyl-ureido)-benzenesulfonyl]-piperidin-4-ylmethyl}-amino)-ethyl]-phenyl}-methanesulfonamide] |
| 5 | 1.1 | CS(=O)(=O)Nc1cc([C@@H](O)CNCC2CCN(S(=O)(=O)c3ccc(NC(=O)NCCc4cc(F)ccc4F)cc3)CC2)ccc1O [Example 81, N-{5-[(1R)-2-({[1-({4-[({[2-(2,5-difluorophenyl)ethyl]amino]-carbonyl)amino}-phenyl}sulfonyl)piperidin-4-yl]methyl}amino)-1-hydroxyethyl]-2-hydroxyphenyl}-methanesulfonamide] |
